# Tested on: Escherichia coli strain ATCC25922
# Test: standard microdilution assay to determine minimum inhibitory concentrations (MICs)
# Assay type: cell-based
# Conditions: Escherichia coli strain ATCC25922, microdilution
# Description: The in vitro activity of the compounds of the present invention can be determined. Antimicrobial testing is typically performed to determine the minimum inhibitory concentration (MIC). Minimum inhibitory concentrations (MICs) are determined by the microdilution method in a final volume of 100 μl according to protocols outlined by The Clinical and Laboratory Standards Institute (CLSI). Performance standards for reference strains are assessed within the same experimental design to maintain quality control. See, for example, Clinical Laboratory Standards Institute: Methods for dilution antimicrobial susceptibility tests for bacteria that grow aerobically M7-A8. Approved Standard-Eighth Edition. Wayne, Pa.: CLSI; December 2008; and Clinical Laboratory Standards Institute: Performance Standards for Antimicrobial Susceptibility Testing M100-S20; Approved Standard-Twentieth Edition. Wayne, Pa.: CLSI; June 2010.
# The compounds of the present invention were tested for antimicrobial activity. […] The compounds were run against Escherichia coli strain ATCC25922 using a standard microdilution assay to determine minimum inhibitory concentrations (MICs). […] A “N/A” means that data is unavailable. It will be recognized by one skilled in the art that the compounds can be assessed against other bacterial organisms and that the presentation of data for activity against Escherichia coli is illustrative and in no way is intended to limit the scope of the present invention. The compounds of the present invention can be assayed against a range of other microorganisms depending upon the performance activity desired to be gathered. Furthermore, the “+”, “−”, and “N/A” representation and the selection of a cutoff value of 16 micrograms/ml is also illustrative and in no way is intended to limit the scope of the present invention.
row,SMILES,E. coli ATCC25922 MIC
1,CC(=O)Nc1cc(CCCCN)cc(-c2cc3cn(-c4ccc(CNCCCNC(=N)N)cc4)c(=O)nc3[nH]2)c1 [Compound 41],+ (a “+” indicates that the compound has an MIC value of 16 micrograms/ml or less)
2,N=C(N)NCCCNCc1ccc(-n2cc3cc(-c4cc(OC(F)(F)F)cc(C(O)CCCN)c4)[nH]c3nc2=O)cc1 (stereo not shown) [Compound 42],+ (a “+” indicates that the compound has an MIC value of 16 micrograms/ml or less)
3,N=C(N)NCCCNCc1ccc(-n2cc3cc(-c4cc(Br)c(CC(O)CCN)c(OC(F)(F)F)c4)[nH]c3nc2=O)cc1 (stereo not shown) [Compound 43],+ (a “+” indicates that the compound has an MIC value of 16 micrograms/ml or less)
4,COc1c(CCCCN)cc(-c2cc3cn(-c4ccc(CNCCCNC(=N)N)cc4)c(=O)nc3[nH]2)cc1OC(F)(F)F [Compound 44],+ (a “+” indicates that the compound has an MIC value of 16 micrograms/ml or less)
5,COC(=O)NCCCCc1cc(-c2cc3cn(-c4ccc(CNCCCNC(=N)N)cc4)c(=O)nc3[nH]2)cc(OC(F)(F)F)c1OC [Compound 45],+ (a “+” indicates that the compound has an MIC value of 16 micrograms/ml or less)
6,CC(C)c1cc(CCCCN)cc(-c2cc3cn(-c4ccc(CNCCCNC(=N)N)cc4)c(=O)nc3[nH]2)c1 [Compound 46],+ (a “+” indicates that the compound has an MIC value of 16 micrograms/ml or less)
7,NCCCCc1cc(OC(F)(F)F)cc(-c2cc3cn(-c4ccc(CNCCCN/C(N)=N\CCCF)cc4)c(=O)nc3[nH]2)c1 [Compound 47],+ (a “+” indicates that the compound has an MIC value of 16 micrograms/ml or less)
8,CS(=O)(=O)Nc1cc(CCCCN)cc(-c2cc3cn(-c4ccc(CNCCCNC(=N)N)cc4)c(=O)nc3[nH]2)c1 [Compound 48],+ (a “+” indicates that the compound has an MIC value of 16 micrograms/ml or less)
9,N=C(N)NCCCNCc1ccc(-n2cc3cc(-c4cc(CCCCN)cc(NC(N)=O)c4)[nH]c3nc2=O)cc1 [Compound 49],+ (a “+” indicates that the compound has an MIC value of 16 micrograms/ml or less)
10,N=C(N)NCCCNCc1ccc(-n2cc3cc(-c4cc(CCCCN)ccc4OC(F)(F)F)[nH]c3nc2=O)cc1 [Compound 50],+ (a “+” indicates that the compound has an MIC value of 16 micrograms/ml or less)
11,N=C(N)NCCCNCc1ccc(-n2cc3cc(-c4cc(C(O)CCCN)ccc4Cl)[nH]c3nc2=O)cc1 (stereo not shown) [Compound 51],+ (a “+” indicates that the compound has an MIC value of 16 micrograms/ml or less)
12,N=C(N)NCCCNCc1c(F)cc(-n2cc3cc(-c4cc(CCCCN)cc(OC(F)(F)F)c4)[nH]c3nc2=O)cc1F [Compound 52],+ (a “+” indicates that the compound has an MIC value of 16 micrograms/ml or less)
13,N=C(N)NCCCNCc1c(F)cc(-n2cc3cc(-c4cc(CCCCN)ccc4F)[nH]c3nc2=O)cc1F [Compound 53],+ (a “+” indicates that the compound has an MIC value of 16 micrograms/ml or less)
14,N=C(N)NCCCNCc1ccc(-n2cc3cc(-c4cc(CCCCN)ccc4F)[nH]c3nc2=O)cc1F [Compound 54],+ (a “+” indicates that the compound has an MIC value of 16 micrograms/ml or less)
15,N=C(N)NCCCNCc1ccc(-n2cc3cc(-c4cc(CCCCN)cc(-n5ccnn5)c4)[nH]c3nc2=O)cc1 [Compound 55],+ (a “+” indicates that the compound has an MIC value of 16 micrograms/ml or less)
16,N=C(N)NCCCCc1cc(-c2cc3cn(-c4ccc(CNCCCNC(=N)N)cc4)c(=O)nc3[nH]2)cc(-n2ccnn2)c1 [Compound 56],+ (a “+” indicates that the compound has an MIC value of 16 micrograms/ml or less)
17,Cc1ccc(CCCCN)cc1-c1cc2cn(-c3ccc(CNCCCNC(=N)N)cc3)c(=O)nc2[nH]1 [Compound 57],+ (a “+” indicates that the compound has an MIC value of 16 micrograms/ml or less)
18,N=C(N)NCCCNCc1ccc(-n2cc3cc(-c4cc(OC(F)(F)F)cc(C(F)CCCN)c4)[nH]c3nc2=O)cc1 (stereo not shown) [Compound 58],+ (a “+” indicates that the compound has an MIC value of 16 micrograms/ml or less)
19,N=C(N)NCCCNCc1ccc(-n2cc3cc(-c4cc(CCCCN)cc(-n5ccnc5)c4)[nH]c3nc2=O)cc1 [Compound 59],+ (a “+” indicates that the compound has an MIC value of 16 micrograms/ml or less)
20,N=C(N)NCCCNCc1ccc(-n2cc3cc(-c4cc(CCCO)cc(OC(F)(F)F)c4)[nH]c3nc2=O)cc1 [Compound 60],− (a “−” indicates that the compound has an MIC value greater than 16 micrograms/ml)

row,SMILES,E. coli ATCC25922 MIC
1,N=C(N)NCCCNCc1ccc(-n2cc3cc(-c4cc(CCCCN)cc(-c5cccnc5)c4)[nH]c3nc2=O)cc1 [Compound 61],+ (a “+” indicates that the compound has an MIC value of 16 micrograms/ml or less)
2,NCCCCc1cc(Cl)c(Cl)c(-c2cc3cn(-c4ccc(CNCCCN=C(N)N)cc4)c(=O)nc3[nH]2)c1 [Compound 62],+ (a “+” indicates that the compound has an MIC value of 16 micrograms/ml or less)
3,Cc1cc(CCCCN)cc(-c2cc3cn(-c4ccc(CNCCCN=C(N)N)cc4)c(=O)nc3[nH]2)c1Cl [Compound 63],+ (a “+” indicates that the compound has an MIC value of 16 micrograms/ml or less)
4,NCCCCc1cc(-c2cc3cn(-c4ccc(CNCCCN=C(N)N)cc4)c(=O)nc3[nH]2)c(Cl)c(C(F)(F)F)c1 [Compound 64],+ (a “+” indicates that the compound has an MIC value of 16 micrograms/ml or less)
5,NCCCCc1cc(OC(F)(F)F)c(Cl)c(-c2cc3cn(-c4ccc(CNCCCN=C(N)N)cc4)c(=O)nc3[nH]2)c1 [Compound 65],+ (a “+” indicates that the compound has an MIC value of 16 micrograms/ml or less)
6,NC(N)=NCCCNCc1ccc(-n2cc3cc(-c4cccc(CCCO)c4)[nH]c3nc2=O)cc1 [Compound 66],− (a “−” indicates that the compound has an MIC value greater than 16 micrograms/ml)
7,C[C@H](NCCCNC(=N)N)c1ccc(-n2cc3cc(-c4cc(CCCCN)cc(F)c4Cl)[nH]c3nc2=O)cc1 [Compound 67],+ (a “+” indicates that the compound has an MIC value of 16 micrograms/ml or less)
8,NCCCCc1cc(SC(F)(F)F)cc(-c2cc3cn(-c4ccc(CNCCCN=C(N)N)c(F)c4)c(=O)nc3[nH]2)c1 [Compound 68],+ (a “+” indicates that the compound has an MIC value of 16 micrograms/ml or less)
9,C[C@H](NCCCNC(=N)N)c1ccc(-n2cc3cc(-c4cc(CCCCN)cc(SC(F)(F)F)c4)[nH]c3nc2=O)cc1 [Compound 69],+ (a “+” indicates that the compound has an MIC value of 16 micrograms/ml or less)
10,C[C@H](NCCCNC(=N)N)c1ccc(-n2cc3cc(-c4cc(COCCN)cc(OC(F)(F)F)c4)[nH]c3nc2=O)cc1 [Compound 70],+ (a “+” indicates that the compound has an MIC value of 16 micrograms/ml or less)
11,NCCCCc1cc(F)c(Cl)c(-c2cc3cn(-c4ccc(CNCCCN=C(N)N)c(F)c4)c(=O)nc3[nH]2)c1 [Compound 71],+ (a “+” indicates that the compound has an MIC value of 16 micrograms/ml or less)
12,Cc1cc(-c2cc3cn(-c4ccc(CNCCCN=C(N)N)cc4)c(=O)nc3[nH]2)cc(CCCCN)c1F [Compound 73],+ (a “+” indicates that the compound has an MIC value of 16 micrograms/ml or less)
13,Cc1cc(-c2cc3cn(-c4ccc(CNCCCN=C(N)N)cc4)c(=O)nc3[nH]2)cc(CCCCNC(=N)N)c1F [Compound 74],+ (a “+” indicates that the compound has an MIC value of 16 micrograms/ml or less)
14,NCCC[C@H](O)c1cc(OC(F)(F)F)cc(-c2cc3cn(-c4ccc(CNCCCN=C(N)N)cc4)c(=O)nc3[nH]2)c1 [Compound 75],+ (a “+” indicates that the compound has an MIC value of 16 micrograms/ml or less)
15,NCCC[C@@H](O)c1cc(OC(F)(F)F)cc(-c2cc3cn(-c4ccc(CNCCCN=C(N)N)cc4)c(=O)nc3[nH]2)c1 [Compound 76],+ (a “+” indicates that the compound has an MIC value of 16 micrograms/ml or less)
16,CC(C)c1cc(CCCCN)cc(-c2cc3cn(-c4ccc(CNCCCN=C(N)N)c(F)c4)c(=O)nc3[nH]2)c1 [Compound 77],+ (a “+” indicates that the compound has an MIC value of 16 micrograms/ml or less)
17,CC(C)c1cc(CCCCN)cc(-c2cc3cn(-c4ccc([C@H](C)NCCCNC(=N)N)cc4)c(=O)nc3[nH]2)c1 [Compound 78],+ (a “+” indicates that the compound has an MIC value of 16 micrograms/ml or less)
18,NCc1cc(CCCO)cc(-c2cc3cn(-c4ccc(CNCCCN=C(N)N)cc4)c(=O)nc3[nH]2)c1 [Compound 79],+ (a “+” indicates that the compound has an MIC value of 16 micrograms/ml or less)
19,NCCCCc1cc(-c2cc3cn(-c4ccc(CNCCCN=C(N)N)c(F)c4)c(=O)nc3[nH]2)cc(C(F)(F)F)c1 [Compound 80],+ (a “+” indicates that the compound has an MIC value of 16 micrograms/ml or less)
20,NC(N)=NCCCNCc1ccc(-n2cc3cc(-c4cc(CCCO)ccc4Cl)[nH]c3nc2=O)cc1 [Compound 82],+ (a “+” indicates that the compound has an MIC value of 16 micrograms/ml or less)

# Source: US9221827B2, “Antimicrobial compounds and methods of making and using the same” (Melinta Therapeutics, Inc., priority 2011, dated 2015)
